{"source": "patent US6288091A", "about": "“Antiherpes virus compounds and methods for their preparation and use” (Boehringer Ingelheim Ltd., priority 1999, dated 2001)", "key": {"[1]": {"test_system": "HCMV (strain AD169)", "assay": "Inhibition of HCMV replication, ELISA assay (Hs-68 cells)", "format": "cell-based, Human Cytomegalovirus (HCMV)", "settings": "read-out: ELISA CMV EC50", "how_it_was_run": "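EC50 derived from % inhibition of viral replication, read as p28 late-protein ELISA signal (mAb UL99, peroxidase/OPD, 450 nm) on fixed cells. Read-out came 8 days post-infection at 37 °C in DMEM with 5% FBS plus compound, after 2 h adsorption of AD169 at MOI 0.01 PFU/cell onto near-confluent Hs-68 cells.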"}, "[2]": {"test_system": "HSV-1 strain F or KOS", "assay": "Inhibition of herpes simplex virus (HSV-1) replication in cell culture (BHK-21 cells, glycoprotein C ELISA)", "format": "cell-based", "how_it_was_run": "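Replication readout: ELISA for HSV-1 late glycoprotein C (mAb C11, peroxidase-OPD, 450 nm) on glutaraldehyde-fixed cells. Monolayers (~50,000 cells/well) were infected with strain F or KOS (MOI 0.05 PFU/cell), then incubated 24 h at 37° with compound in 2% FBS α-MEM. EC50 derived from % inhibition.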"}, "[3]": {"settings": "Human betaherpesvirus 5, AD169, Hs68, Group 2 Table 1 entries"}, "[4]": {"settings": "Human alphaherpesvirus 1, BHK-21, Group 2 Table 1 entries"}, "[5]": {"settings": "Human betaherpesvirus 5, AD169, Hs68, Group 1 Table 6 entries"}, "[6]": {"settings": "Human alphaherpesvirus 1, BHK-21, Group 1 Table 6 entries"}, "[7]": {"settings": "Human betaherpesvirus 5, AD169, Hs68, Group 1 Table 5 entries"}, "[8]": {"settings": "Human alphaherpesvirus 1, BHK-21, Group 1 Table 5 entries"}}, "note": "Read-outs that look alike come from different tables or passages of the source.", "data": [{"smiles": "CN(CCc1ccccn1)C(=O)Nc1ccc(-c2csc(NC(=O)OC(C)(C)C)n2)cc1", "note": "[Example 14]", "values": [{"measurement": "EC50", "setting": "[1]; [3]", "result": 1500, "unit": "nM"}, {"measurement": "EC50", "setting": "[2]; [4]", "result": 3200, "unit": "nM"}]}, {"smiles": "CC(C)(C)OC(=O)N1CCC[C@@H]1C(=O)Nc1ccc(-c2csc(N)n2)cc1", "note": "[Example 8]", "values": [{"measurement": "EC50", "setting": "[1]; [5]", "result": 11000, "unit": "nM"}, {"measurement": "EC50", "setting": "[2]; [6]", "result": 1800, "unit": "nM"}]}, {"smiles": "CCCCN(CCCC)C(=O)C(=O)Nc1ccc(-c2csc(N)n2)cc1", "note": "[Example 1, N-{4-(2-Amino-4-thiazolyl)phenyl}-N',N'-dibutylethanediamide]", "values": [{"measurement": "EC50", "setting": "[1]; Human betaherpesvirus 5, AD169, Hs68, Group 2 Table 2 entries", "result": 2600, "unit": "nM"}, {"measurement": "EC50", "setting": "[2]; Human alphaherpesvirus 1, BHK-21, Group 2 Table 2 entries", "result": 2900, "unit": "nM"}]}, {"smiles": "CC(C)(C)NC(=O)Nc1ccc(-c2csc(N)n2)cc1", "note": "[Example 12]", "values": [{"measurement": "EC50", "setting": "[1]; [3]", "result": 6000, "unit": "nM"}, {"measurement": "EC50", "setting": "[2]; [4]", "result": 4400, "unit": "nM"}]}, {"smiles": "CN(CCc1ccccn1)C(=O)Nc1ccc(-c2csc(N)n2)cc1", "note": "[Example 4]", "values": [{"measurement": "EC50", "setting": "[1]; [3]", "result": 126000, "unit": "nM"}, {"measurement": "EC50", "setting": "[2]; [4]", "result": 1400, "unit": "nM"}]}, {"smiles": "CN(C(=O)OC(C)(C)C)[C@@H](Cc1ccccc1)C(=O)Nc1ccc(-c2csc(N)n2)cc1", "note": "[Example 10]", "values": [{"measurement": "EC50", "setting": "[1]; [7]", "result": 2500, "unit": "nM"}, {"measurement": "EC50", "setting": "[2]; [8]", "result": 59, "unit": "nM"}]}, {"smiles": "Nc1nc(-c2ccc(NC(=O)[C@@H]3CCCN3C(=O)C3CCCCC3)cc2)cs1", "note": "[Example 6]", "values": [{"measurement": "EC50", "setting": "[1]; [5]", "result": 28000, "unit": "nM"}, {"measurement": "EC50", "setting": "[2]; [6]", "result": 16, "unit": "nM"}]}, {"smiles": "Nc1nc(-c2ccc(NC(=O)[C@H]3CCCN3C(=O)C3CCCCC3)cc2)cs1", "note": "[Example 10]", "values": [{"measurement": "EC50", "setting": "[1]; [5]", "result": 600, "unit": "nM"}, {"measurement": "EC50", "setting": "[2]; [6]", "result": 25, "unit": "nM"}]}, {"smiles": "CCCCN(CCCC)C(=O)Nc1ccc(-c2csc(NC(=O)OC(C)(C)C)n2)cc1", "note": "[Example 15]", "values": [{"measurement": "EC50", "setting": "[1]; [3]", "result": 1000, "unit": "nM"}, {"measurement": "EC50", "setting": "[2]; [4]", "result": "> 6000", "unit": "nM"}]}, {"smiles": "Nc1nc(-c2ccc(NC(=O)[C@@H]3CCC(=O)N3Cc3ccccc3)cc2)cs1", "note": "[Example 2]", "values": [{"measurement": "EC50", "setting": "[1]; [5]", "result": 22000, "unit": "nM"}, {"measurement": "EC50", "setting": "[2]; [6]", "result": 2600, "unit": "nM"}]}, {"smiles": "Nc1nc(-c2ccc(NC(=O)[C@H]3CCC(=O)N3CC3CCCCC3)cc2)cs1", "note": "[Example 3]", "values": [{"measurement": "EC50", "setting": "[1]; [5]", "result": 1400, "unit": "nM"}, {"measurement": "EC50", "setting": "[2]; [6]", "result": 2100, "unit": "nM"}]}, {"smiles": "CCCC(CCC)NC(=O)Nc1ccc(-c2csc(N)n2)cc1", "note": "[Example 11]", "values": [{"measurement": "EC50", "setting": "[1]; [3]", "result": 1300, "unit": "nM"}, {"measurement": "EC50", "setting": "[2]; [4]", "result": 8000, "unit": "nM"}]}, {"smiles": "CCCCN(CCCC)C(=O)Nc1ccc(-c2csc(N)n2)cc1", "note": "[Example 1, N-{4-(2-Amino-4-thiazolyl)phenyl}-N,N-dibutylurea]", "values": [{"measurement": "EC50", "setting": "[1]; [3]", "result": 4100, "unit": "nM"}, {"measurement": "EC50", "setting": "[2]; [4]", "result": 800, "unit": "nM"}]}, {"smiles": "Nc1nc(-c2ccc(NC(=O)[C@@H]3CCCN3C(=O)c3ccccc3)cc2)cs1", "note": "[Example 5]", "values": [{"measurement": "EC50", "setting": "[1]; [5]", "result": 63000, "unit": "nM"}, {"measurement": "EC50", "setting": "[2]; [6]", "result": 170, "unit": "nM"}]}, {"smiles": "Nc1nc(-c2ccc(NC(=O)[C@H](Cc3ccccc3)N(Cc3ccccc3)C(=O)C3CCCCC3)cc2)cs1", "note": "[Example 11]", "values": [{"measurement": "EC50", "setting": "[1]; [7]", "result": 1400, "unit": "nM"}, {"measurement": "EC50", "setting": "[2]; [8]", "result": 510, "unit": "nM"}]}, {"smiles": "CC(C)(C)CC(=O)N[C@@H](Cc1ccccc1)C(=O)Nc1ccc(-c2csc(N)n2)cc1", "note": "[Example 19]", "values": [{"measurement": "EC50", "setting": "[1]; [7]", "result": 3800, "unit": "nM"}, {"measurement": "EC50", "setting": "[2]; [8]", "result": 40, "unit": "nM"}]}, {"smiles": "Nc1nc(-c2ccc(NC(=O)[C@H](Cc3ccccc3)NS(=O)(=O)N3CCOCC3)cc2)cs1", "note": "[Example 25]", "values": [{"measurement": "EC50", "setting": "[1]; [7]", "result": 600, "unit": "nM"}, {"measurement": "EC50", "setting": "[2]; [8]", "result": 100, "unit": "nM"}]}, {"smiles": "Nc1nc(-c2ccc(NC(=O)[C@H]3CCCN3C(=O)c3ccccc3)cc2)cs1", "note": "[Example 9]", "values": [{"measurement": "EC50", "setting": "[1]; [5]", "result": 300, "unit": "nM"}, {"measurement": "EC50", "setting": "[2]; [6]", "result": 590, "unit": "nM"}]}]}
